Laboratory results reported in ChEMBL document CHEMBL1143330, “Preliminary investigations on the synthesis and antitumor activity of 3(2H)-furanones” (Bioorg Med Chem Lett, 2009).
Calls of active or inactive are those of the source. The rule behind the calls is not given here.

Assays:
DLA [1] = test: Antitumor activity in mouse DLA cells xenografted Swiss albino mouse assessed as inhibition of tumor cell proliferation at 1 mg/kg, po administered after 7 days of tumor induction measured each 3 days upto 31 days; assay type: functional, organism-based; design: dose 1 mg/kg
DLA [2] = test: Antiproliferative activity against mouse DLA cells assessed as radiolabeled thymidine incorporation at 10 to 200 ug after 24 hrs by liquid scintillation counter; assay type: functional, cell-based

CC(=O)OC1(c2ccccc2)OC(c2ccccc2)=C(c2ccccc2)C1=O (centres undefined)
Activity (DLA [1]): Active
Activity (DLA [2]): Active

COC1(c2ccccc2)OC(c2ccccc2)=C(c2ccccc2)C1=O (centres undefined)
Activity (DLA [1]): Active
Activity (DLA [2]): Active
